This note sets out measurements from patent US5270457A, “Cardiac steriod glycosides” (University of Manitoba, priority 1992, dated 1993).

By IC50 is commonly meant the concentration at which inhibition is half-maximal. High values mean weaker potency, low ones greater potency.

The experiment concerns the target Na/K-ATPase. Description: 3H-ouabain radioligand binding assay (RBA). As to conditions: for IC50: 3H-ouabain radioligand binding assay (RBA). From the text: The potency of steroids to displace the labelled cardiac glycoside (i.e. ouabain) in the assay parallel their biological activity, that is their cardiac glycoside-like activity, in their ability to inhibit Na/K-ATPase and elicit characteristic cellular response.

Structures are written as SMILES. Structures can show the parent of a compound that is named as a salt.

The compound `CC1OC(OC2C(O)CC(OC3C(O)CC(OC4CCC5(C)C(CCC6C5CCC5(C)C(CN)CCC65O)C4)OC3C)OC2C)CC(O)C1O` [Example 3, 14-Hydroxy-3β-(tris-β-D-digitoxosyl)oxy-20-amine-21-nor-5β,14β-pregnane] came in with an IC50 of 400 nM.

Turning to `C[C@@H]1O[C@@H](O[C@H]2CC[C@@]3(C)[C@H](CC[C@@H]4[C@@H]3CC[C@]3(C)[C@@H](CN)CC[C@]43O)C2)[C@H](O)[C@H](O)[C@H]1O` [Example 1, 14-Hydroxy-3β-(α-L-rhamnopyranosyl)oxy-20-amino-21-nor-5β14β-pregnane hydrochloride], the IC50 turned out to be 60 nM. Besides, the IC50 (unit printed 'nm') came to 60 nM. `CC1OC(OC2C(O)CC(OC3C(O)CC(OC4CCC5(C)C(CCC6C5CCC5(C)C(C[N+](=O)[O-])CCC65O)C4)OC3C)OC2C)CC(O)C1O` [Example 4, 14-Hydroxy-3 β-(tris-β-D-digitoxosyl)oxy-20-nitro-21-nor-5β,14β-pregnane] registered an IC50 of 60 nM. Compound `C[C@@H]1O[C@@H](O[C@H]2CC[C@@]3(C)[C@H](CC[C@@H]4[C@@H]3CC[C@]3(C)[C@@H](C[N+](=O)[O-])CC[C@]43O)C2)[C@H](O)[C@H](O)[C@H]1O` [Example 2, 14-Hydroxy-3β-(α-L-rhamnopyranosyl)oxy-20-nitro-21-nor-5β,14β-pregnane] registered an IC50 of 11 nM. The IC50 (unit printed 'nm') amounted to 11 nM. Further, under “comparison of IC50 values, in words”, the “potency compared with Example 1 and Example 4” value was “significantly greater than exhibited by the corresponding amino derivative (Example 1) and tridigitoxosyl derivative (Example 4)”.
